Laboratory results published in patent US20240245804A1 (priority 2021, published 2024).
“Also recorded” adds a separate entry of the source.

B1: CdaA: c-di-AMP cyclase from Listeria monocytogenes, wild type, expressed from plasmid in HEK 293T cells (protein, UniProt Q45589 1-273, looked up)
Cyclic di-AMP synthase CdaA: MAFEDIPFLQYLGNAVDILLVWYVIYKLIMVIRGTKAVQLLKGIVVIVLVRMASQYLGLSTLQWLMDQAITWGFLAIIIIFQPELRRALEQLGRGRFFSRSGTPVEEAQQKTIEAITKAINYMAKRRIGALLTIERDTGMGDYIETGIPLNAKVSSELLINIFIPNTPLHDGAVIMKNNEIAAAACYLPLSESPFISKELGTRHRAAVGISEVTDSLTIIVSEETGGVSVAKNGDLHRELTEEALKEMLEAEFKKNTRDTSSNRWYWRGKKNG

Key:
STING [1] = type: cell-based, mouse
STING [2] = type: cell-based, mouse; remark: listed apart in the source
STING [3] = type: cell-based, mouse; remark: listed apart in the source
STING [4] = type: cell-based, mouse; remark: listed apart in the source
[5] = test system: THP1-Blue-ISG reporter cells; type: cell-based

Row | Molecule | induction of IFNß (STING [1]) | STING agonism evidenced by induction of a variety of inflammatory genes (STING [2]) | induction of nitrite (STING [3]) | STING agonism / activation of the pathway (STING [4]) | SEAP activity (activation of interferon signaling) [5]
1 | Nc1ncnc2c1ncn2[C@@H]1O[C@@H]2COP(=O)(O)O[C@H]3[C@@H](O)[C@H](n4cnc5c(N)ncnc54)O[C@@H]3COP(=O)(O)O[C@H]2[C@H]1O [c-di-AMP] | more potent induction | agonists of STING; also recorded: stronger activation | more potent induction | agonists of STING; also recorded: stronger activation | 
2 | Nc1nc2c(ncn2[C@@H]2O[C@@H]3COP(=O)(O)O[C@H]4[C@@H](O)[C@H](n5cnc6c(N)ncnc65)O[C@@H]4COP(=O)(O)O[C@@H]2[C@@H]3O)c(=O)[nH]1 [cGAMP, 2′3′-cGAMP] |  | agonists of STING |  |  | 
3 | B1 |  |  |  |  | displayed activity
